Laboratory results: article PMC6154661, “In Vitro Glucuronidation and Sulfation of ε-Viniferin, a Resveratrol Dimer, in Humans and Rats” (Molecules : A Journal of Synthetic Chemistry and Natural …, 2017)
Values joined by “and” are separate entries in the source; they are usually repeats but may differ in a detail not shown here. Equal entries are not always repeated. Where two headings read alike, the source gives them in different places.

Assays:
[1] = Glucuronidation of ε-viniferin by rat liver S9 fractions (UDPGA); assay type: in vitro ADME; details: for Vmax: formation of the glucuronide from ε-viniferin, rat liver S9, mean ± SEM, n=3
Experimental: (§1) After incubation of ε-viniferin (50 µM) for 40 min at 37 °C with either human (Figure 2a, lower panel) or rat (Figure 2b, lower panel) liver S9 fractions (2 mg/mL) in the presence of different phase II cofactor(s), i.e., 3′-phosphoadenosine-5′-phosphosulfate (PAPS) and UDPGA, eight metabolites were found using UPLC-DAD-MS. These metabolites were further identified by comparison with the UPLC retention times and mass spectra of the authentic chemical standards that were obtained by chemical hemi-synthesis (Figure 1a). These eight compounds were the four glucuronoconjugates (MG1, MG2, MG3, and MG4) and the four sulfoconjugates (MS1, MS2, MS3, and MS4). These metabolites were absent in the control condition, i.e., in the presence of liver S9 fractions and in the absence of phase II cofactors (data not shown).
(§2) Samples from either chemical hemi-synthesis or metabolic reactions were carried using a 1290 Infinity UPLC (Agilent Technologies, Courtaboeuf, France). The UPLC was coupled to an Esquire 3000 Plus ion trap mass spectrometer using an ESI source (Bruker-Daltonics, Billerica, MA, USA). 2 µL were injected into an Agilent SB-C18 column (1.8 µm, 2.1 × 100 mm). Samples were eluted with solvent A (H2O 0.1% FA) and solvent B (acetonitrile 0.1% FA) by the following gradient program: 0–1.7 min, 10% B; 1.7–3.4 min, 10–20% B; 3.4–5.1 min, 20–30% B; 5.1–7.8 min, 30% B; 7.8–8.5 min, 30–35% B; 8.5–11.9 min, 35–60% B; 11.9–15.3 min, 60–100% B; 15.3–17 min, 100% B; 17–17.3 min, 100–10% B. The flow rate was set to 0.4 mL/min and the UV detector was set at the wavelength 320 nm. Total ion chromatograms were obtained using negative mode with a range of m/z 130–1400. The parameters were: capillary voltage, +4 kV; nebulizer pressure, 40 psi; dry gas, 10 L/min; dry temperature, 365 °C. Data analysis was performed with Bruker Data Analysis 3.2 (Bruker-Daltonics, Billerica, MA, USA). Metabolite concentrations were expressed as an equivalent of the ε-viniferin standard curve.
(§3) The incubation conditions were optimized by preliminary experiments to ensure the formation rates of metabolites were linear over the incubation time and at the concentration of protein added. Sulfation was investigated by incubating human or rat liver S9 fractions (2 mg/mL) with ε-viniferin at different concentrations (5 to 300 µM) in Tris-HCl buffer (50 mM, pH 7.4), in the presence of PAPS (1 mM), DTT (10 mM), MgCl2 (5 mM) in a final volume of 100 µL. After 40 min at 37 °C, the reaction was stopped with 100 µL of methanol to precipitate the protein. Glucuronidation was investigated by incubating human or rat liver S9 fractions (2 mg/mL) with ε-viniferin at different concentrations (5 to 300 µM) in Tris-HCl buffer (50 mM, pH 7.4), in the presence of UDPGA (1 mM), alamethicin (25 µg/mL), and MgCl2 (5 mM) in a final volume of 100 µL. After 40 min at 37 °C, the reaction was stopped with 100 µL of methanol to precipitate the protein. Samples from sulfation and glucuronidation were then centrifuged for 30 min (14,000× g, 4 °C), and the resultant supernatants were analyzed using UPLC-DAD-MS as described above. The kinetic model that was used to analyze the results was substrate inhibition. Kinetic parameters, i.e., Vmax and Km were obtained using GraphPad Prism software (La Jolla, CA, USA). Results are expressed as mean ± sem of three independent experiments.
(§4) V = (Vmax × [S])/(Km + [S] + [S]^2/Ki), […]

[2] = Glucuronidation of ε-viniferin by human liver S9 fractions (UDPGA); assay type: in vitro ADME; details: for Vmax: formation of the glucuronide from ε-viniferin, human liver S9, mean ± SEM, n=3; for relative abundance among the glucuronides (UPLC-DAD profile): human liver S9 2 mg/mL, ε-viniferin 50 µM, UDPGA, 40 min, 37 °C
Experimental: as §1, §2, §3
(§5) V = (Vmax × [S])/(Km + [S] + [S]^2/Ki),
(§6) Vmax: maximal velocity; Km: substrate affinity constant; [S]: substrate concentration; Ki: substrate inhibition constant.

[3] = Formation of glucurono- and sulfoconjugates of ε-viniferin (50 µM, 40 min) with rat liver S9 fractions; assay type: in vitro ADME; details: rat liver S9, ε-viniferin 50 µM
Experimental: as §1, §2, §3

[4] = Formation of glucurono- and sulfoconjugates of ε-viniferin (50 µM, 40 min) with human liver S9 fractions; assay type: in vitro ADME; details: human liver S9, ε-viniferin 50 µM
Experimental: as §1, §2, §3

[5] = Sulfation of ε-viniferin by human liver S9 fractions (PAPS); assay type: in vitro ADME; details: for Vmax: formation of the sulfate from ε-viniferin, human liver S9, mean ± SEM, n=3; for relative abundance among the sulfoconjugates (UPLC-DAD profile): human liver S9 2 mg/mL, ε-viniferin 50 µM, PAPS, 40 min, 37 °C
Experimental: as §1, §2, §3, §4

[6] = Sulfation of ε-viniferin by rat liver S9 fractions (PAPS); assay type: in vitro ADME; details: for Vmax: formation of the sulfate from ε-viniferin, rat liver S9, mean ± SEM, n=3; for relative abundance among the sulfoconjugates (UPLC-DAD profile): rat liver S9 2 mg/mL, ε-viniferin 50 µM, PAPS, 40 min, 37 °C
Experimental: as §1, §2, §3, §5, §6

[7] = rat, in vivo; cited from earlier work
[8] = parameters: method as in PMID 27902942; details: mice, oral administration; cited from earlier work

Structure (SMILES)	Vmax [1] [pmol/min/mg protein]	Vmax [2] [pmol/min/mg protein]	percentage of each metabolite relative to the total amount of ε-viniferin metabolites formed by glucuronidation [3]	percentage of each metabolite relative to the total amount of ε-viniferin metabolites formed by glucuronidation [4]	percentage of each metabolite relative to the total amount of ε-viniferin metabolites formed by sulfation [3]	percentage of each metabolite relative to the total amount of ε-viniferin metabolites formed by sulfation [4]	relative abundance among the sulfoconjugates (UPLC-DAD profile) [5]	Vmax [6] [pmol/min/mg protein]	relative abundance among the sulfoconjugates (UPLC-DAD profile) [6]	also measured
O=C(O)C1OC(Oc2cc(/C=C/c3ccc(O)cc3)c3c(c2)OC(c2ccc(O)cc2)C3c2cc(O)cc(O)c2)C(O)C(O)C1O (stereo not shown) [MG1]	548.90 ± 86.17	11.27 ± 1.30	MG1: 91.1 ± 2.4%	MG1: 54.6 ± 2.4%						relative abundance among the glucuronides (UPLC-DAD profile) ([1]; rat liver S9 2 mg/mL, ε-viniferin 50 µM, UDPGA, 40 min, 37 °C): major metabolite; relative abundance among the glucuronides (UPLC-DAD profile) [2]: major metabolites
O=C(O)C1OC(Oc2ccc(/C=C/c3cc(O)cc4c3C(c3cc(O)cc(O)c3)C(c3ccc(O)cc3)O4)cc2)C(O)C(O)C1O (stereo not shown) [MG2]	12.49 ± 1.13	2.54 ± 0.16	MG2: 1.1 ± 0.2%	MG2: 5.0 ± 1.2%						
O=C(O)C1OC(Oc2ccc(C3Oc4cc(O)cc(/C=C/c5ccc(O)cc5)c4C3c3cc(O)cc(O)c3)cc2)C(O)C(O)C1O (stereo not shown) [MG3]	3.06 ± 0.14	0.78 ± 0.06	MG3: 0.7 ± 0.0%	MG3: 8.9 ± 0.5%						
O=C(O)C1OC(Oc2cc(O)cc(C3c4c(/C=C/c5ccc(O)cc5)cc(O)cc4OC3c3ccc(O)cc3)c2)C(O)C(O)C1O (stereo not shown) [MG4]	43.99 ± 5.49	4.91 ± 0.78	MG4: 7.1 ± 0.1%	MG4: 31.5 ± 0.9%						relative abundance among the glucuronides (UPLC-DAD profile) [2]: major metabolites
O=S(=O)(O)Oc1cc(/C=C/c2ccc(O)cc2)c2c(c1)OC(c1ccc(O)cc1)C2c1cc(O)cc(O)c1 (stereo not shown) [MS1]					MS1: 38.0 ± 1.4%	MS1: 75.2 ± 3.8%	major metabolite	25.16 ± 2.29	almost equal amounts	Vmax [5]: 361.60 ± 13.09 pmol/min/mg protein
O=S(=O)(O)Oc1ccc(/C=C/c2cc(O)cc3c2C(c2cc(O)cc(O)c2)C(c2ccc(O)cc2)O3)cc1 (stereo not shown) [MS2]					MS2: 23.5 ± 3.1%	MS2: 24.8 ± 1.2%		8.46 ± 0.89	almost equal amounts	Vmax [5]: 30.46 ± 0.96 pmol/min/mg protein
O=S(=O)(O)Oc1ccc(C2Oc3cc(O)cc(/C=C/c4ccc(O)cc4)c3C2c2cc(O)cc(O)c2)cc1 (stereo not shown) [MS3]					MS3: 22.0 ± 1.9%	MS3: 0%	trace amount	13.47 ± 1.10	almost equal amounts	
O=S(=O)(O)Oc1cc(O)cc(C2c3c(/C=C/c4ccc(O)cc4)cc(O)cc3OC2c2ccc(O)cc2)c1 (stereo not shown) [MS4]					MS4: 16.4 ± 1.3%	MS4: 0%	trace amount	36.79 ± 3.94	almost equal amounts	
Oc1ccc([C@H]2Oc3ccc(/C=C/c4cc(O)cc(O)c4)cc3[C@@H]2c2cc(O)cc(O)c2)cc1 [δ-viniferin]										oral bioavailability [7]: 2.3%
Oc1ccc(/C=C/c2cc(O)cc3c2[C@@H](c2cc(O)cc(O)c2)[C@H](c2ccc(O)cc2)O3)cc1 [ε-viniferin, ε-Viniferin]										Sulfatation (%) [3]: 4.3% and 4.3 ± 0.3%; ε-viniferin conversion (%) [3]: 78.1 ± 0.9%; Glucuronidation (%) [4]: 29.1% and 29.1 ± 1.2%; Sulfatation (%) [4]: 43.6% and 43.6 ± 1.8%; oral bioavailability [8]: 0.77%
